Columns and labels:
[1] = test system: pro-collagen synthesis in Hs27/HEK001 cells; assay: Pro-Collagen Synthesis In Vitro Assay (Procollagen ELISA); type: cell-based, human
Protocol: Hs27/HEK001 cells are plated at 10,000/40,000 cells per well of 96-well plate. Hs27 cells are normal human fibroblasts derived from a foreskin source. […] cells are a human epidermal cell line that originally was derived from human scalp keratinocytes. […] Hs27/HEK001 cells are allowed to attach overnight. Following overnight incubation, media is removed from the wells and replaced with 100 μl fresh media.
After overnight incubation, the test samples are added to wells in triplicate to final concentrations of 1, 10, and 100 μg/ml. The cells with test sample added are incubated overnight and supernatants are collected for analysis using a Procollagen ELISA kit from Takara Bio, Inc. (Japan). The EC50 concentration for each test sample is monitored and recorded to evaluate variability over time.
Controls for this assay include administration of 0.1, 1, and 10 μg/ml ascorbic acid and all-trans-retinoic acid to H27/HEK cells. Untreated cells also are used as a negative control. It generally is known that ascorbic acid increases pro-collagen synthesis by approximately 15-20% compared to untreated control.

[2] = test system: glycosaminoglycan production; assay: Synthesis of glycosaminoglycans after allantoin administration; type: cell-based
elastin = assay: Elastin synthesis after allantoin administration; type: cell-based
[3] = test system: pro-collagen synthesis in Hs27/HEK001 cells; settings: generally known value for the control substance; cited from earlier work

Row | SMILES | Pro-collagen synthesis, percent of untreated control ([1]; allantoin at 100 μg/ml, average of triplicate wells) [%] | average increase in pro-collagen synthesis ([1]; at 100 μg/ml) [%] | dose dependence of pro-collagen synthesis ([1]; final concentrations of 1, 10, and 100 μg/ml) | Glycosaminoglycan synthesis, percent of untreated control ([2]; allantoin at 100 μg/ml) [%] | average increase in glycosaminoglycan production ([2]; at 100 μg/ml) [%] | Elastin synthesis, percent of untreated control (elastin; allantoin at 100 μg/ml) [%] | average increase in elastin (elastin; at 100 μg/ml) [%] | increase in pro-collagen synthesis compared to untreated control [3]
1 | NC(=O)NC1NC(=O)NC1=O (centres unmarked) [Allantoin, 2,5-dioxy-4-imidazolidinyl urea] | 124.1 | 24.1 | dose-dependent increase in pro-collagen synthesis | 111.2 | 11.2 | 106.2 | 6.2 | 
2 | O=C1O[C@H]([C@@H](O)CO)C(O)=C1O [ascorbic acid] |  |  |  |  |  |  |  | 15-20%

— patent US20080108681A1 (Access Business Group International LLC, priority 2006, published 2008)
